Measured values taken from patent US20240279710A1, “FLUORESCENT PROBES” (TOHOKU TECHNO ARCH CO., LTD., priority 2021, published 2024).

Experiments:
SH-SY5Y cells = assay: Live cell imaging of calpain activity in SH-SY5Y cells; assay type: cell-based; conditions: 5 μM probe, 10 minutes incubation, FIG. 12
Experimental: Whether or not the improvement in enzymatic reactivity between the compound of the present invention and a calpain confirmed by the above-mentioned experiment remained the same even in a cell was verified. Calpain activity imaging in SH-SY5Y cells was performed on each of Compounds 16 and 19. Specifically, the SH-SY5Y cells (American Type Culture Collection, VA, USA) were cultured in a mixed medium of Dulbecco's modified eagle medium and Ham's F-12 medium (DMEM/F-12; Thermo Fisher Scientific, Inc.) (containing 10% fetal bovine serum (FBS; Thermo Fisher Scientific, Inc., MA, USA) and 100 U/mL penicillin-100 μg/mL streptomycin (PS; Thermo Fisher Scientific, Inc.)) under the conditions of 37° C. and 5% CO2-95% air. 6×10^4 to 8×10^4 Cells/well of the cells were seeded in a multiwell plate (μ-Plate 96 Well; ibidi, Grafelfing, Germany) coated with poly-D-lysine (Thermo Fisher Scientific, Inc.) and laminin (BD Biosciences, CA, USA), and were preincubated in a culture solution. Immediately after the removal of the culture solution in the wells, 200 μL of an assay solution (a culture solution containing a 5 μM probe) was added thereto, and the cells were incubated under the conditions of 37° C. and 5% CO2-95% air. 10 Minutes after that, a bright field image and a fluorescence image were taken with a confocal microscope (LSM 710, Carl Zeiss AG, Oberkochen, Germany).
Calpain activity imaging in SH-SY5Y cells was performed on each of Compounds 20 to 23, Compound 38, and Compound 56 in the same manner as in Example 9. In the case of each of Compounds 20 to 23 and Compound 38, a bright field image and a fluorescence image were taken after 30 minutes of incubation of the cells, and in the case of Compound 56, such images were taken after 20 minutes of incubation thereof.

[1] = target: T1, calpain-1 from human erythrocytes (Homo sapiens, UniProt P07384); assay: Fluorescence assay with calpain-1; assay type: biochemical; conditions: 10 μM probe, 17.4 U/mL calpain-1, 5 mM CaCl2, 37° C., FIG. 4
T1 construct: calpain-1 from human erythrocytes; purchased Merck Millipore 208713; host or cells: human erythrocytes (natural source)
T1 sequence (P07384 1-714): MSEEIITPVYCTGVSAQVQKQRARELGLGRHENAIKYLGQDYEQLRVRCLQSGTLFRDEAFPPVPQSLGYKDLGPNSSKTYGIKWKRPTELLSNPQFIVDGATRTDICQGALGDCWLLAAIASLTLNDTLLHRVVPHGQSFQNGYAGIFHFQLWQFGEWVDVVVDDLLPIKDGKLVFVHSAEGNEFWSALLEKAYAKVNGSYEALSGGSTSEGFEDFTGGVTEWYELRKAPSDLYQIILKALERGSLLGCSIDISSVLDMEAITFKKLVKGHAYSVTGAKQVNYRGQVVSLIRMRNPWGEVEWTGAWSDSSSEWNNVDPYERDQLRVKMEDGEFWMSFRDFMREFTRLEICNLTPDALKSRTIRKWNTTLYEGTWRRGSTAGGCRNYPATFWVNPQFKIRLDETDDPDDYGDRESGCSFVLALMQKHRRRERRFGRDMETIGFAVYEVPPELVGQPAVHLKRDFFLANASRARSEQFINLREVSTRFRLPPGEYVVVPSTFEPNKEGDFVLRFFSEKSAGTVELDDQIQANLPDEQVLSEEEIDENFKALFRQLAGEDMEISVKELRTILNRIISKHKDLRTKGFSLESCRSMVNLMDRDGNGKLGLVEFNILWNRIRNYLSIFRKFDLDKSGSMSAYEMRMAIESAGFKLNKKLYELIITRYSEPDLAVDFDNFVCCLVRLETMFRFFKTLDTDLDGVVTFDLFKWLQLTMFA
T1 sequence (P04632 1-268 partner): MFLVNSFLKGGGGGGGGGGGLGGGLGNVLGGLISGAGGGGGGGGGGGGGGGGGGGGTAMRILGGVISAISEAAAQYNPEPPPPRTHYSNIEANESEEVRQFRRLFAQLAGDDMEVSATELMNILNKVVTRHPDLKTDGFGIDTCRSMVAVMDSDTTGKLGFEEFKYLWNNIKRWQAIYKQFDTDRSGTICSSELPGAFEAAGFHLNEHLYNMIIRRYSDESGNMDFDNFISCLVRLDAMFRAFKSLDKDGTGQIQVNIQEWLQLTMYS
Experimental: The fluorescence assays of Compound 19 and Compound 16 with time were performed. Specifically, 17.4 U/mL of calpain-1 and 5 mM CaCl2 were added to a 50 mM TRIS buffer (pH: 7.4, 2 mM EGTA, 2 mM DTE) containing 10 μM of each of the synthesized fluorescent probes to perform an enzyme reaction at 37° C. Each of the compounds to which calpain-1 and CaCl2 were not added was similarly subjected as a negative control to the measurement.
The fluorescence assays of Compounds 16 to 36 were similarly performed. 50 Units per milliliter (Compounds 16 and 19 to 25) or 17.4 U/mL (Compounds 16 to 18 and 26 to 36) of calpain-1 and 5 mM CaCl2 were added to a 50 mM TRIS buffer (pH: 7.4, 2 mM EGTA, 2 mM DTE) containing 10 μM of each of the synthesized fluorescent probes to perform an enzyme reaction at 37° C.
Next, similar fluorescence assays of Compounds 37, 42, 45, 48, 51, 53, 55, 57, and 59 with calpain-1 were performed. Specifically, 17.4 U/mL of calpain-1 and 5 mM CaCl2 were added to a 50 mM TRIS buffer (pH: 7.4, 2 mM EGTA, 2 mM DTE) containing 10 μM of each of the synthesized fluorescent probes to perform an enzyme reaction at 37° C. Each of the compounds to which calpain-1 was not added was used as a control.
To evaluate an influence of a R^12-L-O— group on the reactivity of each of compounds having the same amino acids with calpain-1, the fluorescence assays of Compounds 37 to 66 with calpain-1 were performed in accordance with the above-mentioned method. Specifically, 17.4 U/mL of calpain-1 and 5 mM CaCl2 were added to a 50 mM TRIS buffer (pH: 7.4, 2 mM EGTA, 2 mM DTE) containing 10 μM of each of the synthesized fluorescent probes to perform an enzyme reaction at 37° C., followed by the measurement of an increase in fluorescence intensity of each of the compounds 10 minutes after the addition of calpain-1.

COCC(=O)N[C@@H](CC(C)C)C(=O)N[C@@H](CCSC)C(=O)Nc1ccc2c(c1)Oc1cc(N)ccc1C21OCc2ccccc21 (stereo partly shown) [Compound 19]
calpain activity imaging in SH-SY5Y cells (SH-SY5Y cells; confocal microscope): enabled the observation of calpain activity in the SH-SY5Y cells | clarity of live cell imaging compared to Compound 16 (SH-SY5Y cells): Clear imaging | change in fluorescence intensity with time by calpain-1 ([1]; excitation 475 nm, fluorescence 500-550 nm): functioned as a fluorescent probe for calpain-1 | reactivity with calpain-1 compared with Compound 16 (fluorescence with time) [1]: further improved in reactivity with calpain-1
